The test system of assay [1] is 24 other chemokine receptors. The assay is described as follows: β-arrestin recruitment to all other chemokine receptors (panel, NanoBiT, U87 cells). The format is cell-based, human. As to conditions: 3 μM. Here is the method: (§1) In brief, 1.2×10^6 U87 cells were plated in 10 cm-culture dishes and 48 hours later co-transfected with pNBe vectors encoding GPCRs C-terminally tagged to SmBiT and human β-arrestin-1 or -2 or mini G proteins (mG, engineered GTPase domains of Gα subunits,) N-terminally fused to LgBiT. 48 hours post-transfection cells were harvested, incubated 25 minutes at 37° C. with Nano-Glo Live Cell substrate diluted 200-fold and distributed into white 96-well plates (5×10^4 cells per well). Ligand-induced, β-arrestin and mG recruitment to GPCRs was evaluated with a Mithras LB940 luminometer (Berthold Technologies) for 20 minutes. For concentration-response curves, the signal recorded with a saturating concentration of full agonist for each receptor was set as 100%.
In general terms: Arrestin recruitment assays detect the binding of arrestin to an activated receptor.

Assay [2] deals with T1, ACKR3 (Homo sapiens, UniProt P25106). In words: Uptake of fluorescently labelled opioid peptides by ACKR3-expressing U87 cells, imaging flow cytometry. The format is cell-based. Also noted: expressed in transfected cells; for the receptor comparison in the uptake assay, transient pcDNA3.1). Particulars: saturating concentration of LIH383 (3 μM). Background: Flow cytometry measures light scatter and fluorescence of single cells or particles in a stream.
Target sequence in this assay (P25106 whole entry): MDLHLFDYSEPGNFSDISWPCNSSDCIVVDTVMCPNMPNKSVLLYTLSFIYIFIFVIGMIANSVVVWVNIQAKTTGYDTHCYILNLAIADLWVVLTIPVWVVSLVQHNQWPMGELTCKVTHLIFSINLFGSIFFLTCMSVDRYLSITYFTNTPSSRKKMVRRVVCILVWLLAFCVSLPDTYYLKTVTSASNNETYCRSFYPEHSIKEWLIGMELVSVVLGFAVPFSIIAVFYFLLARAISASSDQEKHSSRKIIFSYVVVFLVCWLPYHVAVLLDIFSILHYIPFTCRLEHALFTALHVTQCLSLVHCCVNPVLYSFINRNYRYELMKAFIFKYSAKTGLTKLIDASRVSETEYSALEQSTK
Text: Visualization of Fluorescently Labelled Opioid Peptides Uptake by Imagestream

Another assay concerns smNPCs. The assay is described as follows: Uptake of labelled dynorphin A (1-13) by smNPCs, imaging flow cytometry. Particulars: 3 μM, 15 minutes pre-treatment. The format is cell-based, human. Here is the method:
U87 cells derived from human brain glioblastoma were obtained through the NIH AIDS Reagent Program from Dr. Deng and Dr. Littman. U87 stably expressing ACKR3 and CXCR4 were generated as previously described in Szpakowska, M. et al. Different contributions of chemokine N-terminal features attest to a different ligand binding mode and a bias towards activation of ACKR3/CXCR7 compared with CXCR4 and CXCR3. Br J Pharmacol 175, 1419-1438 (2018). U87 cells were grown in Dulbecco's modified Eagle medium (DMEM) supplemented with 15% foetal bovine serum and penicillin/streptomycin (100 Units/ml and 100 μg/ml). U87-ACKR3 and U87-CXCR4 were maintained under puromycin (1 μg/ml) selective pressure. smNPCs (small molecule neural precursor cells) derived from a healthy donor (C1-1) whose informed consent was obtained, were grown on Geltrex™-coated surface in N2B27 medium supplemented with 0.5 μM Purmorphamine, 3 μM CHIR 99021 and 150 μM ascorbic acid. N2B27 medium consisted of DMEM/F12 and NeuroBasal medium 50:50 with 0.5% N2 supplement, 1% B27 supplement lacking vitamin A, 1% GlutaMAX and 1% penicilin/streptomycin. Medium was renewed every other day.
Cells were distributed into 96-well plates (2×10^5 cells/well in Opti-MEM for U87 and U87-ACKR3 and 3×10^5 cells/well in N2B27 medium for smNPCs). […] For comparison of labelled opioid peptide-uptake by ACKR3 or classical opioid receptors, 1.2×10^6 U87 cells were seeded in 10-cm dishes and transfected 48 hours later with 4 μg pcDNA3.1 plasmid encoding ACKR3 or KOR, MOR or NOP. 48 hours post transfection, cells were harvested and treated as described above. Dead cells were excluded using Zombie NIR or Zombie Green viability dye (BioLegend) for FAM-labelled peptides and Cy5-labelled peptides, respectively. Images of 1×10^4 in-focus, living single cells were acquired with an ImageStream MKII imaging flow cytometer (Amnis) using 40× magnification (60× magnification for smNPCs). Samples were analysed using Ideas6.2 software. The number of spots per cell was determined using a mask-based software wizard.

The target of assay [3] is T1, ACKR3. In words: ACKR3-mediated depletion of extracellular dynorphin A monitored by its ability to activate KOR (U87-ACKR3 cells). The assay is classed as cell-based. Also noted: expressed in transfected cells; for the receptor comparison in the uptake assay, transient pcDNA3.1). Particulars: pre-treatment of ACKR3-expressing cells, saturating concentration. Here is the method:
as §1
Target sequence in this assay (P25106 whole entry): as above

Assay [4] deals with T1, ACKR3. The assay is described as follows: Binding competition with Alexa Fluor 647-labelled CXCL12 on U87-ACKR3 cells, flow cytometry. Also noted: expressed in transfected cells; for the receptor comparison in the uptake assay, transient pcDNA3.1). As to conditions: 5 nM CXCL12-AF647, U87-ACKR3 cells. As to the method: 1.3. Binding Competition Assays
U87-ACKR3 cells were distributed into 96-well plates (1.5×10^5 cells per well) and incubated with a mixture of 5 nM CXCL12-AF647 and unlabelled chemokines or opioid peptides at indicated concentrations for 90 minutes on ice, then washed twice with FACS buffer (PBS, 1% BSA, 0.1% NaN3) at 4° C. Dead cells were excluded using Zombie Green viability dye (BioLegend). ACKR3-negative U87 cells were used to evaluate non-specific binding of CXCL12-AF647. […] The signal obtained for CXCL12-AF647 in the absence of unlabelled chemokines was used to define 100% binding. Ligand binding was quantified by mean fluorescence intensity on a BD FACS Fortessa cytometer (BD Biosciences).
Target sequence in this assay (P25106 whole entry): as above

Assay [5] concerns the target ACKR3. The assay is described as follows: Binding competition | ACKR3 | IC50 (nM). The text has this:
Table printed on a drawing sheet, FIG. 1 (continued) H
Head of the field: Binding competition | ACKR3 | IC50 (nM)
The patent's description of the figure: FIG. 1 Opioid peptide library screening on ACKR3, hit confirmation and comparison with classical opioid receptors. (A) The ability of 58 compounds, including natural opioid peptides from the four opioid families, variants thereof and small molecule opioid receptor modulators, to induce β-arrestin-2 recruitment to ACKR3, CXCR4 and CXCR3 in U87 cells at a concentration of 5 μM. Positive control chemokines were used at a concentration of 300 nM. Results are expressed as fold change over vehicle-treated cells and presented as mean±S.D of two replicates (B-F) Comparison of potency and efficacy of ACKR3-activating peptides in inducing β-arrestin-1 recruitment to the opioid receptors MOR (B), DOR (C), KOR (D), NOP (E) and ACKR3 (F) in U87 cells. Results are expressed as percentage of indicated agonist response. […] Results from B—H are presented as mean±S.E.M (n ? 3).
Where the first naming reader finds the target: head: Binding competition | ACKR3 | IC50 (nM)

Assay [6] has as its target T1, ACKR3. The format is cell-based. Also noted: expressed in transfected cells; host or cells: U87 cells, transient co-transfection of pNBe vectors.
Target sequence in this assay (P25106 whole entry): as above
Target sequence in this assay (P49407 whole entry partner): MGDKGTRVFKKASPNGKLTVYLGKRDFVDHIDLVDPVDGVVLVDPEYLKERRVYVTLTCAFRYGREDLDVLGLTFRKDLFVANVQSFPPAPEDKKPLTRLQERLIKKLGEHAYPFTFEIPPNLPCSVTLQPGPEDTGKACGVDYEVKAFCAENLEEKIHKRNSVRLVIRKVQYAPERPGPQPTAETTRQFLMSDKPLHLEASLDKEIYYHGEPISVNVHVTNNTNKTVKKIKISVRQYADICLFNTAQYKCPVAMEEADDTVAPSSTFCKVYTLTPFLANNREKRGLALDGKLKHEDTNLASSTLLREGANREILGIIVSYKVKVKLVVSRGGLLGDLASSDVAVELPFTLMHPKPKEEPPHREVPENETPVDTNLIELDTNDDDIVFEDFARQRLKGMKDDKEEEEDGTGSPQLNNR
The next assay deals with T2, MOR (Homo sapiens, UniProt P35372).
T2 construct: expressed in transfected cells; host or cells: U87 cells, transient co-transfection of pNBe vectors
The format is cell-based. As to conditions: concentrations as high as 3 μM. As to the method:
as §1

For a further assay, the target named is T3, DOR (Homo sapiens, UniProt P41143).
T3 construct: expressed in transfected cells; host or cells: U87 cells, transient co-transfection of pNBe vectors
In words: β-arrestin-1 recruitment to DOR (NanoBiT, U87 cells). The assay is classed as cell-based. As to conditions: concentrations as high as 3 μM. As to the method:
as §1

A further assay concerns the target T4, NOP (Homo sapiens, UniProt P41146).
T4 construct: expressed in transfected cells; host or cells: U87 cells, transient co-transfection of pNBe vectors
In words: β-arrestin-1 recruitment to NOP (NanoBiT, U87 cells). The format is cell-based. Particulars: concentrations as high as 3 μM. Here is the method: as §1

The text below walks through data of US12578343B2, “Selective ACKR3 modulators and uses thereof” (Luxembourg Institute of Health (LIH), priority 2019, dated 2026).

T3 sequence (P41143 whole entry): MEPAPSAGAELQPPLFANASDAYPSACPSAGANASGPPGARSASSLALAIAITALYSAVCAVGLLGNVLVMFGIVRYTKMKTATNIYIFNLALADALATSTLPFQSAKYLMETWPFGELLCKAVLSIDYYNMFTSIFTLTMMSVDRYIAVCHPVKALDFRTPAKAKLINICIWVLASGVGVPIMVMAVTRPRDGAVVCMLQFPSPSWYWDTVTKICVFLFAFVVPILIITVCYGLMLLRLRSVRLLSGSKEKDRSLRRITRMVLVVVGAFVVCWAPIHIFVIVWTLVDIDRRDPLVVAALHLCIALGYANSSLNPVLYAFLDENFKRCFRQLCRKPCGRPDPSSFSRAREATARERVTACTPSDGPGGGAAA
T4 sequence (P41146 whole entry): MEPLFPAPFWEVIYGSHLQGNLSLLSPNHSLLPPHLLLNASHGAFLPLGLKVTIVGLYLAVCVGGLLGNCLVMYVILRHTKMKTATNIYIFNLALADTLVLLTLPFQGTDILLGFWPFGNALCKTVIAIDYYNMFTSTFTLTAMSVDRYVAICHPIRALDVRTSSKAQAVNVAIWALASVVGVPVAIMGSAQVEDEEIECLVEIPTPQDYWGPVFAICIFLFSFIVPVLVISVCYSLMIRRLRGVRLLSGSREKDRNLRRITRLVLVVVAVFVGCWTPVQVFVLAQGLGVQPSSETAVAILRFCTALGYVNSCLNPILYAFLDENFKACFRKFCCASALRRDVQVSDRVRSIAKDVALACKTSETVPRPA
T2 sequence (P35372 whole entry): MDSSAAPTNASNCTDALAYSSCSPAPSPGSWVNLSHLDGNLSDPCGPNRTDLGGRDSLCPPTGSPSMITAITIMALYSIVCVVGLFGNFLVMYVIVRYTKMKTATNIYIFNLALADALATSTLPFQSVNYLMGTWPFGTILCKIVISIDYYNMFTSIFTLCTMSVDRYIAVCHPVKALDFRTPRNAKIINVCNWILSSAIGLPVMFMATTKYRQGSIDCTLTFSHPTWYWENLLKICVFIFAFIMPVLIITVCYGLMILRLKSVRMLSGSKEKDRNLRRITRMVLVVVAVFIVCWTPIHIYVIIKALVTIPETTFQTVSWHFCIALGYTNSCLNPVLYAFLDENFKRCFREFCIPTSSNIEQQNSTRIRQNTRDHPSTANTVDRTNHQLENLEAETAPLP

As a reminder, the IC50 is the concentration at which inhibition is half-maximal. Low readings indicate higher potency, high ones lower potency. In the case of `CSCC[C@H](NC(=O)[C@H](Cc1ccccc1)NC(=O)CNC(=O)CNC(=O)[C@@H](N)Cc1ccccc1)C(=O)N[C@@H](CCCNC(=N)N)C(=O)N[C@@H](CCCNC(=N)N)C(=O)N[C@@H](CCCCN)C(N)=O` [LIH383], the “β-arrestin recruitment to the other chemokine receptors” value in [1] is on record as “no activation or inhibition”. Besides, the “dynorphin A-FAM uptake by U87-ACKR3 cells compared to U87-ACKR3 cells pre-incubated with LIH383” value at ACKR3 [2] was “notably higher number of distinguishable vesicle-like structures and mean fluorescent intensity”. Further, the “effect of pretreatment on uptake of labelled dynorphin A (1-13) by smNPCs” value in the assay on smNPCs is listed as “significantly reduced”. Also, on ACKR3 [3], the “reversal of the ACKR3-mediated impairment of dynorphin A potency to activate KOR by pre-treatment” value is recorded as “reversed”. Moreover, the “competition with CXCL12-AF647 for ACKR3 binding” value at ACKR3 [4] is on record as “low nanomolar concentrations”. In addition, on ACKR3 [5], the IC50 worked out at 4 nM. Also, on ACKR3 [6], the “EC50 (range in words)” value is “subnanomolar range” and the “potency relative to known ACKR3 agonists such as compound 18” value turned out to be 20 times. Besides, at MOR, the “activation or inhibition of MOR” value is “no activation or inhibition”. Further, the “activation or inhibition of DOR” value on DOR is on record as “no activation or inhibition”. Also, at NOP, the “activation or inhibition of NOP” value is “no activation or inhibition”.
